According to patent US20120136050A1, “USE OF A MELATONIN AGONIST FOR THE TREATMENT OF SLEEP DISORDERS INCLUDING PRIMARY INSOMNIA” (VANDA PHARMACEUTICALS INC., priority 2009, published 2012):
“Also recorded” adds a separate entry of the source.

Legend:
[1] = test system: patients with chronic primary insomnia; assay: Phase III placebo-controlled 4-week trial in chronic primary insomnia (PSG); assay type: in vivo, human; conditions: for fell asleep faster than placebo group (PSG): first night of treatment, p<0.001
Method: A phase III, multi-center, placebo-controlled, 4-week trial evaluated 322 patients with chronic primary insomnia. Patients were randomized to receive either 20 mg or 50 mg of Compound A or placebo over the course of four weeks. The primary endpoint consisted of the evaluation of the immediate and short-term (average of Nights 1 and 8) ability of Compound A to improve sleep onset as measured by Latency to Persistent Sleep (LPS) through polysomnography (PSG). Secondary endpoints evaluated Compound A's ability to maintain improvements on sleep onset after long-term (average of Nights 22 and 29) use of the compound as well as measures of sleep duration (Total Sleep Time, TST) and sleep maintenance (Wake After Sleep Onset, WASO). Patients were eligible for the study if symptoms of insomnia were chronic and LPS was greater than 30 minutes.

[2] = test system: healthy male and female subjects with induced transient insomnia; assay: Example 2: single oral dose study in induced transient insomnia (PSG); assay type: in vivo, human
Method: A multi-center, randomized, double-blind, placebo-controlled, parallel-group study was conducted to investigate the efficacy and safety of single oral doses of VEC-162 (20 mg, 50 mg, and 100 mg) and matching placebo in healthy male and female subjects with induced transient insomnia. Approximately four hundred subjects were randomized in approximately a 1:1:1:1 ratio to the treatment groups.
In general, a screening period began 14 to 35 days prior to the start of the evaluation period, which was Day 1. Prior to Day 1, subjects were asked to increase their sleep time to 9 hours per night. Drug, or placebo, was administered on Night 1, approximately 0.5 hour prior to lights off.
The primary efficacy variable was LPS. LPS is defined as the length of time elapsed between lights off and onset of persistent sleep. In this trial, persistent sleep is defined as the point at which 10 minutes of uninterrupted sleep has begun. Sleep was determined on the basis of polysomnography (PSG).
Wake After Sleep Onset (WASO): WASO is defined as the time spent awake between onset of sleep and Lights On during Night 1, determined by PSG.
Latency to Non-Awake (LNA): LNA is defined as the number of minutes to reach any stage of sleep.
Total Sleep Time (TST): TST is defined as the number of minutes spent asleep during the entire time in bed.

healthy volunteers = assay: Previous Phase I single and multiple ascending dose studies, safety and tolerability; assay type: in vivo
Method: (§1) A 28-day Phase II study was also conducted to investigate the effects of Compound A in elderly patients with primary insomnia. […] While patients with the lowest melatonin levels ([…]) may have benefited from Compound A treatment more than placebo, the design of this study made it difficult to interpret the effects of Compound A on the sleep-wake cycle.
(§2) The oral doses selected were based on safety and efficacy data obtained from previous Compound A pre-clinical and clinical trials. […] Though not optimally designed to assess the chronobiotic potential of Compound A, clinical trial CN116-002 measured the effects Compound A on the circadian sleep-wake cycle. […] The doses selected for the study (10 mg, 20 mg, 50 mg, and 100 mg) were within the expected dose range for efficacy. The safety of the selected doses for this study is supported by previous clinical studies. […] The highest dose in the study, 100 mg, is well within the safety margin established in both Phase I single and multiple ascending dose trials and in a Phase II study.

[3] = test system: elderly patients with primary insomnia; assay: 28-day Phase II study in elderly patients with primary insomnia; assay type: in vivo, human
Method: as §1

[4] = test system: circadian sleep-wake cycle; assay: Clinical trial CN116-002, effects on the circadian sleep-wake cycle; assay type: in vivo, human; conditions: 50 mg
Method: as §2

[5] = Plasma exposure after oral administration (Cmax, AUC); assay type: in vivo, human
[6] = Solubility in solvents and water; assay type: physicochemical
[7] = Particle size by laser diffraction (Malvern Mastersizer); assay type: physicochemical
Method: Particle size will also affect the dose selected. At larger particle sizes, i.e., D50 is greater than about 100 m, e.g., about 100 m to about 200 m oral doses at the higher end, i.e., up to about 100 mg are effective, whereas at smaller particle sizes, i.e., D50 is less than about 100 m, e.g., about 20 m to about 50 m, lower doses, i.e., less than about 100 mg, are useful, e.g., about 10 mg to about 80 mg and about 20 mg to about 50 mg. (Particle size measurements supporting the above were made laser diffraction using a Malvern Mastersizer. The D50 (D10, D90, D100) value means that 50% (10%, 90%, 100%) of the particles by weight are of the indicated diameter or smaller.) In one embodiment of the invention, the above doses are administered in immediate release form, i.e., a non-controlled release formulation.

[8] = 20 mg, Nights 1 and 8 vs baseline, p<0.001 vs placebo
[9] = 20 mg, Nights 22 and 29 vs baseline, nss
[10] = 20 mg, Nights 22 and 29 vs baseline, p<0.001 vs placebo
[11] = 50 mg, Nights 1 and 8 vs baseline, p<0.001 vs placebo
[12] = 50 mg, Nights 22 and 29 vs baseline, nss
[13] = 50 mg single oral dose, p<0.001
[14] = single oral dose, conclusion from Examples 1 and 2
[15] = material used in Example 1 study
[16] = material used in Example 2 study, material used in sleep latency study

Structure (SMILES): CCC(=O)NC[C@@H]1C[C@H]1c1cccc2c1CCO2 [Compound A, N-[[(1R,2R)-2-(2,3-dihydro-1-benzofuran-4-yl)cycloproply]methyl]propanamide]
- tolerability and safety profile ([1]; 20 mg or 50 mg over four weeks): well-tolerated and exhibited a safety profile generally similar to placebo
- mean WASO improved by ([1]; 20 mg, Nights 1 and 8 vs baseline, nss): 12.2 min
- mean LPS improved by [1, 8]: 45.0 min
- mean TST during the first third of the night improved by [1, 8]: 40.9 min
- mean WASO during the first third of the night improved by ([1]; 20 mg, Nights 1 and 8 vs baseline, p<0.01 vs placebo): 2.3 min
- mean TST improved by ([1]; 20 mg, Nights 1 and 8 vs baseline, p=0.089 vs placebo): 51.4 min
- mean WASO during the first third of the night improved by [1, 9]: 3.1 min
- mean WASO improved by [1, 9]: 17.7 min
- mean LPS improved by [1, 10]: 49.4 min
- mean TST during the first third of the night improved by [1, 10]: 45.2 min
- mean TST improved by ([1]; 20 mg, Nights 22 and 29 vs baseline, p=0.057 vs placebo): 60.3 min
- fell asleep faster than placebo group (PSG) ([1]; 20 mg): 22.9 min
- mean WASO improved by ([1]; 50 mg, Nights 1 and 8 vs baseline, nss): 14.1 min
- mean LPS improved by [1, 11]: 46.4 min
- mean TST during the first third of the night improved by [1, 11]: 39.4 min
- mean WASO during the first third of the night improved by ([1]; 50 mg, Nights 1 and 8 vs baseline, p<0.05 vs placebo): 1.8 min
- mean TST improved by ([1]; 50 mg, Nights 1 and 8 vs baseline, p=0.074 vs placebo): 52.0 min
- mean WASO during the first third of the night improved by [1, 12]: 1.8 min
- mean WASO improved by [1, 12]: 10.2 min
- mean TST improved by ([1]; 50 mg, Nights 22 and 29 vs baseline, nss vs placebo): 48.6 min
- mean TST during the first third of the night improved by ([1]; 50 mg, Nights 22 and 29 vs baseline, p<0.01 vs placebo): 40.1 min
- mean LPS improved by ([1]; 50 mg, Nights 22 and 29 vs baseline, p=0.016 vs placebo): 45.1 min
- fell asleep faster than placebo group (PSG) ([1]; 50 mg): 25.9 min
- Latency to Persistent Sleep (LPS): Improvement compared with placebo ([2]; 20 mg single oral dose, p<0.001): 21.5 min
- Total Sleep Time (TST): Improvement compared with placebo ([2]; 20 mg single oral dose, p<0.002): 33.7 min
- Latency to Non-Awake (LNA): Improvement compared with placebo ([2]; 20 mg single oral dose, p<0.006): 11.1 min
- Wake After Sleep Onset (WASO): Improvement compared with placebo ([2]; 20 mg single oral dose, p<0.02): 24.2 min
- Latency to Non-Awake (LNA): Improvement compared with placebo [2, 13]: 14.3 min
- Latency to Persistent Sleep (LPS): Improvement compared with placebo [2, 13]: 26.3 min
- Total Sleep Time (TST): Improvement compared with placebo [2, 13]: 47.9 min
- Wake After Sleep Onset (WASO): Improvement compared with placebo ([2]; 50 mg single oral dose, p=0.001): 33.7 min
- Latency to Persistent Sleep (LPS): Improvement compared with placebo ([2]; 100 mg single oral dose, p<0.001): 22.8 min
- Latency to Non-Awake (LNA): Improvement compared with placebo ([2]; 100 mg single oral dose, p<0.002): 12.3 min
- Total Sleep Time (TST): Improvement compared with placebo ([2]; 100 mg single oral dose, p<0.005): 29.6 min
- Wake After Sleep Onset (WASO): Improvement compared with placebo ([2]; 100 mg single oral dose, p=0.081): 17.5 min
- tolerability ([2]; all doses (20 mg, 50 mg, 100 mg)): well-tolerated
- efficacy of 20 mg relative to 100 mg [2, 14]: comparable or superior to 100 mg
- efficacy of 50 mg relative to 100 mg [2, 14]: more efficacious than 100 mg
- safety and tolerability, multiple doses (healthy volunteers; doses up to 150 mg daily for 28 days, healthy subjects (b53 also elderly subjects with chronic insomnia)): well-tolerated; also recorded: safety and tolerability of Compound A at doses up to 150 mg has been demonstrated
- safety and tolerability, single dose (healthy volunteers; healthy subjects, single oral dose of 1 mg to 300 mg): safe and well tolerated
- number of nocturnal awakenings versus placebo [3]: did not differentiate from placebo
- sleep latency versus placebo [3]: did not differentiate from placebo
- effect on circadian rhythms [4]: consistently shifted circadian rhythms
- effect of covariates on exposure levels ([5]; age, weight, height, gender, creatinine clearance, or ALT baseline levels): not affected
- AUC increase with dose ([5]; oral doses 10 to 100 mg): approximately proportional to dose
- Cmax increase with dose ([5]; oral doses 10 to 100 mg): approximately proportional to the dose
- dependence of aqueous solubility on pH [6]: practically unaffected by pH
- solubility in organic solvents ([6]; 95% ethanol, methanol, acetonitrile, ethyl acetate, isopropanol, polyethylene glycols (PEG-300 and PEG-400)): very soluble or freely soluble
- native pH of a saturated solution in water ([6]; saturated solution in water): 8.5
- solubility in water ([6]; water): only slightly soluble
- particle size D10 [7, 15]: 10 µm
- particle size D50 [7, 15]: 115 µm
- particle size D90 [7, 15]: 316 µm
- particle size D100 [7, 15]: 631 µm
- particle size D10 [7, 16]: 5 µm
- particle size D50 [7, 16]: 25 µm
- particle size D90 [7, 16]: 72 µm
- particle size D100 [7, 16]: 316 µm
